One experiment deals with T1, EGFR (L858R T790M C797S) (Homo sapiens, UniProt P00533, C797S/L858R/T790M).
T1 construct: purchased SignalChem E10-122VG
The experiment is described as follows: Biochemical EGFR inhibition assay (Caliper mobility shift), EGFR LRTMCS mutant. The note with it: inhibitory activity against EGFR LRTMCS mutant; apparent IC50; read-out: Ext Enz LRTMCS. As to the method: Reactions proceeded until between 10% to 20% total peptides were phosphorylated at room temperature (25° C.) and were terminated with 35 mM 2,2′,2″,2′″-(ethane-1,2-diyldinitrilo)tetraacetic acid (EDTA). Product was detected using the Caliper mobility shift detection method where the phosphorylated peptide (product) and substrate were electrophoretically separated and measured. Percent activity was plotted against log concentration of compound and points to generate an apparent IC50.

Experiment [1] relates to phosphorylation of EGFR (Tyr1068) in NCI-H1975 cell line that harbors the EGFR L858R T790M mutations. The experiment is described as follows: NCI-H1975 pEGFR AlphaLISA assay. The experiment is classed as cell-based. Conditions: 4-5 hours incubation, read-out: Ext pEGFR H1975. As to the method: Inhibitory effects of the compounds of the disclosure were evaluated in cellular assays that measure level of intracellular phosphorylation of EGFR in NCI-H1975 cell line that harbors the EGFR L858R T790M mutations (ATCC, CRL-5908) using AlphaLISA sureFire ultra p-EGFR (Tyr1068) assay kit (PerkinElmer, ALSU-PEGFR-A50K). The NCI-H1975 cells were seeded at 12.5K/well in 22 μL into 384 well opti plate (PerkinElmer, 6007299) and adhering overnight at 37 C/5% CO2. On the next day, the test compounds and DMSO control were added into H1975 cell plate followed by incubation at 37 C/5% CO2 for 4-5 hours. The cells were then spin down in the 384-well plate and lysed with 10 μL of 1×AlphaLISA lysis buffer followed by shaking at 600 rpm for 10 minutes at room temperature. After that, 5 μL of an acceptor bead mix was added to each well followed by incubation at room temperature for 1.5-2 h in dark. Then 5 μL of a donor bead mix was added to each well followed by overnight incubation at room temperature in dark. On the next day, the plate was read at a compatible plate reader to obtain pEGFR signal. Percent of pEGFR inhibition was plotted against log concentration of compounds to generate IC50 values.

Where [2] appears, read: Homo sapiens, NCI-H1975, inhibition of phosphorylation of mutant EGFR in NCI-H1975 cells.

SMILES strings stand for the structures. Where two headings read alike, the source gives them in different places.

T1 sequence (P00533 25-1210 T790M/C797S/L858R): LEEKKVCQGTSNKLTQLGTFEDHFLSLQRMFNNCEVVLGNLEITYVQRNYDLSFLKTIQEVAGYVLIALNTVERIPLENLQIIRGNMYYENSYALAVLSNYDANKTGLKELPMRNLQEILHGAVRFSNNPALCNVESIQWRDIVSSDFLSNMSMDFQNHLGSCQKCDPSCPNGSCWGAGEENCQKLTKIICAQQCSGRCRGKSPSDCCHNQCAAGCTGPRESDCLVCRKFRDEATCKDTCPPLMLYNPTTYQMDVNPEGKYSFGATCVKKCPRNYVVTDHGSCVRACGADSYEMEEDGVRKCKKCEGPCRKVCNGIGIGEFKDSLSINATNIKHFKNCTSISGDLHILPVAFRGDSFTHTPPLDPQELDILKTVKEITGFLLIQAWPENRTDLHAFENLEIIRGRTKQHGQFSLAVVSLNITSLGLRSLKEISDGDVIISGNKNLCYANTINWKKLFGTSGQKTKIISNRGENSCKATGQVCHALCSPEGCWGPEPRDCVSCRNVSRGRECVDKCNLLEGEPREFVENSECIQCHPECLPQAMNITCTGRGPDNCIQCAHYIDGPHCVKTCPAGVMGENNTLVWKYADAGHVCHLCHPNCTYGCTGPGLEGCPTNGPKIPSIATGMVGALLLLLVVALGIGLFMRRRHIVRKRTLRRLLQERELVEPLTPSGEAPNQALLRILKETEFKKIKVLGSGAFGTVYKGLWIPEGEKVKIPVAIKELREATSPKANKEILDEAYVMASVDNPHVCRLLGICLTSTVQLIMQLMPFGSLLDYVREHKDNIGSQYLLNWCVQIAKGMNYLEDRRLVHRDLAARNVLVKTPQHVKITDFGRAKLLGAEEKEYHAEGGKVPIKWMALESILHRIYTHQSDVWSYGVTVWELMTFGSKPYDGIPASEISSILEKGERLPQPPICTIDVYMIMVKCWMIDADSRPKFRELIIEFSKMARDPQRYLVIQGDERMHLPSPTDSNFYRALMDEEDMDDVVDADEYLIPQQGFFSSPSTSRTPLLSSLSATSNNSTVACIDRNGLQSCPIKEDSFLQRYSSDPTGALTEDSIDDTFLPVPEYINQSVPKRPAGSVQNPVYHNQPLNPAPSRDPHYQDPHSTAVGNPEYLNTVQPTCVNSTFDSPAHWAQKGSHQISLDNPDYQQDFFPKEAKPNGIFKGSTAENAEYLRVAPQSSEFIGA

For `CC[C@]1(F)CN(c2nccc(Nc3cc4c(C(C)C)ccc(N5CC(CS(C)(=O)=O)C5)c4cn3)n2)CC[C@H]1O` (single isomer, unassigned) [Compound 115, (3S,4R)-3-ethyl-3-fluoro-1-[4-({8-[3-(methanesulfonylmethyl)azetidin-1-yl]-5-(propan-2-yl)isoquinolin-3-yl}amino)pyrimidin-2-yl]piperidin-4-ol or (3R,4S)-3-ethyl-3-fluoro-1-[4-({8-[3-(methanesulfonylmethyl)azetidin-1-yl]-5-(propan-2-yl)isoquinolin-3-yl}amino)pyrimidin-2-yl]piperidin-4-ol], the IC50 was at most 15 nM at EGFR (L858R T790M C797S) and at most 10 nM in experiment [1] (setting [2]).

On to `CO[C@@H]1[C@H](O)CN(c2nccc(Nc3cc4c(C(C)C)ccc(N5C[C@H](CS(C)(=O)=O)[C@H]5C)c4cn3)n2)CC1(F)F` (single isomer, unassigned) [Compound 232, (3S,4S)-5,5-difluoro-1-(4-(5-isopropyl-8-((2R,3S)-2-methyl-3-(methylsulfonylmethyl)azetidin-1-yl)isoquinolin-3-ylamino)pyrimidin-2-yl)-4-methoxypiperidin-3-ol or (3R,4R)-5,5-difluoro-1-(4-(5-isopropyl-8-((2R,3S)-2-methyl-3-(methylsulfonylmethyl)azetidin-1-yl)isoquinolin-3-ylamino)pyrimidin-2-yl)-4-methoxypiperidin-3-ol], for which the IC50 is 30.1 to 100 nM at EGFR (L858R T790M C797S) and at most 10 nM in experiment [1] (setting [2]).

Regarding `CCS(=O)(=O)C[C@H]1CN(c2ccc(C(C)C)c3cc(Nc4cnnc(N5CC[C@H](OC)[C@H](F)C5)n4)ncc23)[C@@H]1C` [Compound 289, 8-[(2R,3S)-3-[(ethanesulfonyl)methyl]-2-methylazetidin-1-yl]-N-{3-[(3R,4S)-3-fluoro-4-methoxypiperidin-1-yl]-1,2,4-triazin-5-yl}-5-(propan-2-yl)isoquinolin-3-amine], the figures for the IC50 (on EGFR (L858R T790M C797S); in experiment [1] (setting [2])) were at most 15 nM and at most 10 nM, respectively.

As to `CO[C@@H]1[C@H](F)CN(c2nccc(Nc3cc4c(C(C)C)ccc(N5C[C@H](CS(C)(=O)=O)[C@H]5C)c4cn3)n2)C[C@@H]1O` (racemic) [Compound 198, (3R,4R,5S)-5-fluoro-1-(4-((5-isopropyl-8-((2R,3S)-2-methyl-3-((methylsulfonyl)methyl)azetidin-1-yl)isoquinolin-3-yl)amino)pyrimidin-2-yl)-4-methoxypiperidin-3-ol and (3S,4S,5R)-5-fluoro-1-(4-((5-isopropyl-8-((2R,3S)-2-methyl-3-((methylsulfonyl)methyl)azetidin-1-yl)isoquinolin-3-yl)amino)pyrimidin-2-yl)-4-methoxypiperidin-3-ol], the figures for the IC50 (at EGFR (L858R T790M C797S); in experiment [1] (setting [2])) were 15.1 to 20 nM and at most 10 nM, respectively.

For `CO[C@H]1CCN(c2nccc(Nc3cc4c(C(C)C)ccc(N5CC(CS(C)(=O)=O)C5)c4cn3)n2)C[C@H]1F` [Compound 63, N-(2-((3R,4S)-3-fluoro-4-methoxypiperidin-1-yl)pyrimidin-4-yl)-5-isopropyl-8-(3-(methylsulfonylmethyl)azetidin-1-yl)isoquinolin-3-amine], the IC50 on EGFR (L858R T790M C797S) was at most 15 nM; in experiment [1] (setting [2]) it was at most 10 nM.

For the molecule `CO[C@H]1CN(c2nccc(Nc3cc4c(C(C)C)ccc(N5C[C@H](CS(C)(=O)=O)[C@H]5C)c4cn3)n2)CC[C@H]1O` (single isomer, unassigned) [Compound 97, (3S,4R)-1-[4-({8-[(2R,3S)-3-(methanesulfonylmethyl)-2-methylazetidin-1-yl]-5-(propan-2-yl)isoquinolin-3-yl}amino)pyrimidin-2-yl]-3-methoxypiperidin-4-ol or (3R,4S)-1-[4-({8-[(2R,3S)-3-(methanesulfonylmethyl)-2-methylazetidin-1-yl]-5-(propan-2-yl)isoquinolin-3-yl}amino)pyrimidin-2-yl]-3-methoxypiperidin-4-ol], the IC50 was at most 15 nM at EGFR (L858R T790M C797S) and at most 10 nM in experiment [1] (setting [2]).

As to `CO[C@@H]1[C@H](O)CN(c2nccc(Nc3cc4c(C(C)C)cnc(N5C[C@H](CS(C)(=O)=O)[C@H]5C)c4cn3)n2)CC1(F)F` (single isomer, unassigned) [Compound 235, (3R,4R)-5,5-difluoro-1-[4-({8-[(2R,3S)-3-(methanesulfonylmethyl)-2-methylazetidin-1-yl]-5-(propan-2-yl)-2,7-naphthyridin-3-yl}amino)pyrimidin-2-yl]-4-methoxypiperidin-3-ol or (3S,4S)-5,5-difluoro-1-[4-({8-[(2R,3S)-3-(methanesulfonylmethyl)-2-methylazetidin-1-yl]-5-(propan-2-yl)-2,7-naphthyridin-3-yl}amino)pyrimidin-2-yl]-4-methoxypiperidin-3-ol], the IC50 on EGFR (L858R T790M C797S) is at most 15 nM; in experiment [1] (setting [2]) it was at most 10 nM.

For the molecule `COc1ccc(N2CC(CS(C)(=O)=O)C2)c2cnc(Nc3ccnc(N4CC[C@@H](O)[C@@](C)(F)C4)n3)cc12` (single isomer, unassigned) [Compound 32], the values for the IC50 (at EGFR (L858R T790M C797S); in experiment [1] (setting [2])) were at most 15 nM and 20.1 to 30 nM, respectively.

In the case of `CC(C)c1ccc(N2CC(CS(C)(=O)=O)C2)c2cnc(Nc3ccnc(N4CCC5(OCCO5)[C@H](F)C4)n3)cc12` (single isomer, unassigned) [Compound 181, N-{2-[(6R)-6-fluoro-1,4-dioxa-8-azaspiro[4.5]decan-8-yl]pyrimidin-4-yl}-8-[3-(methanesulfonylmethyl)azetidin-1-yl]-5-(propan-2-yl)isoquinolin-3-amine or N-{2-[(6S)-6-fluoro-1,4-dioxa-8-azaspiro[4.5]decan-8-yl]pyrimidin-4-yl}-8-[3-(methanesulfonylmethyl)azetidin-1-yl]-5-(propan-2-yl)isoquinolin-3-amine], the IC50 at EGFR (L858R T790M C797S) is at most 15 nM; in experiment [1] (inhibition of phosphorylation of mutant EGFR in NCI-H1975 cells), 10.1 to 20 nM.

With `CCS(=O)(=O)CC1CN(c2ccc(C(C)C)c3cc(Nc4ccnc(N5CC[C@H](OCCO)[C@H](F)C5)n4)ncc23)C1` [Compound 293, 2-{[(3R,4S)-1-{4-[(8-{3-[(ethanesulfonyl)methyl]azetidin-1-yl}-5-(propan-2-yl)isoquinolin-3-yl)amino]pyrimidin-2-yl}-3-fluoropiperidin-4-yl]oxy}ethan-1-ol], the results for the IC50 (on EGFR (L858R T790M C797S); in experiment [1] (setting [2])) were at most 15 nM and at most 10 nM, respectively.

Regarding `CC(C)c1cnc(N2C[C@H](CS(C)(=O)=O)[C@H]2C)c2cnc(Nc3ccnc(N4CC[C@@](C)(O)[C@@H](F)C4)n3)cc12` (single isomer, unassigned) [Compound 137], the IC50 on EGFR (L858R T790M C797S) is at most 15 nM; in experiment [1] (setting [2]), at most 10 nM.

In the case of `CC(C)c1ccc(N2CC(CS(C)(=O)=O)C2)c2cnc(Nc3ccnc(N4CCOCC4)n3)cc12` [Compound 1, 8-[3-(methanesulfonylmethyl)azetidin-1-yl]-N-[2-(morpholin-4-yl)pyrimidin-4-yl]-5-(propan-2-yl)isoquinolin-3-amine], the IC50 at EGFR (L858R T790M C797S) was in the range of 15.1 to 20 nM; in experiment [1] (setting [2]) it was 30.1 to 50 nM.

Consider `CC(C)c1ccc(N2CC(CS(C)(=O)=O)C2)c2cnc(Nc3ccnc(N4CC[C@H](O)[C@H](F)C4)n3)cc12` [Compound 29, (3R,4S)-3-fluoro-1-[4-({8-[3-(methanesulfonylmethyl)azetidin-1-yl]-5-(propan-2-yl)isoquinolin-3-yl}amino)pyrimidin-2-yl]piperidin-4-ol], for which the figures for the IC50 (on EGFR (L858R T790M C797S); in experiment [1] (setting [2])) were at most 15 nM and at most 10 nM, respectively.

`CO[C@H]1CCN(c2nccc(Nc3cc4c(C(C)(C)N)ccc(N5C[C@H](CS(C)(=O)=O)[C@H]5C)c4cn3)n2)C[C@H]1F` [Compound 312, 5-(2-aminopropan-2-yl)-N-(2-((3R,4S)-3-fluoro-4-methoxypiperidin-1-yl)pyrimidin-4-yl)-8-((2R,3S)-2-methyl-3-((methylsulfonyl)methyl)azetidin-1-yl)isoquinolin-3-amine]: the IC50 on EGFR (L858R T790M C797S) was at most 15 nM.

Consider `CC(C)c1ccc(N2C[C@H](CS(C)(=O)=O)[C@H]2C)c2cnc(Nc3ccnc(N4CC[C@H](O)[C@@](C)(F)C4)n3)cc12` (single isomer, unassigned) [Compound 119, (3S,4S)-3-fluoro-1-[4-({8-[(2R,3S)-3-(methanesulfonylmethyl)-2-methylazetidin-1-yl]-5-(propan-2-yl)isoquinolin-3-yl}amino)pyrimidin-2-yl]-3-methylpiperidin-4-ol or (3R,4R)-3-fluoro-1-[4-({8-[(2R,3S)-3-(methanesulfonylmethyl)-2-methylazetidin-1-yl]-5-(propan-2-yl)isoquinolin-3-yl}amino)pyrimidin-2-yl]-3-methylpiperidin-4-ol], for which the IC50 in experiment [1] (setting [2]) was 20.1 to 30 nM.

Source of the values: patent US12172983B2, “EGFR inhibitors” (Blueprint Medicines Corporation, priority 2019, dated 2024).
